Measurements from paper PMC12298827, “Subchronic Toxicities of Four Per- and Polyfluoroalkyl Substances (PFASs) by Oral Exposure in Sprague–Dawley Rats” (Toxics, 2025).

Test system: male and female Sprague–Dawley rats
Assay: 90-day subchronic oral gavage toxicity study
Assay type: in vivo, rat
Parameters: key to NOEL, absolute liver weight increase / LOEL, absolute liver weight increase / NOEL, relative kidney weight increase / LOEL, relative kidney weight increase / NOEL, absolute kidney weight increase / LOEL, absolute kidney weight increase / NOEL, relative liver weight increase / LOEL, relative liver weight increase: NR: no response, no statistically significant dose-dependent changes
Method: Subchronic (90-day) studies were performed in accordance with current U.S. EPA’s Toxic Substances Control Act Good Laboratory Practice (GLP) Standards, with the following two general exceptions to the GLP guidelines: Analysis of the dose formulations was conducted according to RTI-approved Standard Operating Procedures, and corn oil (the vehicle) was not characterized (certificate of analysis from the vendor is available in the appendices to the final reports). Male and female Sprague–Dawley rats (five dose levels plus a control, n = 10/sex/dose group, corn oil vehicle dose volume of 3 mL/kg; oral gavage) were used in these studies, and the rats were euthanized on SD 91. The dose levels for PFHI were 0, 12.5, 25, 50, 100, and 200 mg/kg-day. The dose levels for MHFPK were 0, 18.8, 37.5, 75, 150, and 300 mg/kg-day. The dose levels for PFNAC were 0, 0.1, 0.3, 1.0, 3.0, and 10 mg/kg-day for male rats and 0, 0.3, 1.0, 3.0, 10, and 30 mg/kg-day for female rats. For CTFPA, the dose levels were 0, 1.9, 3.8. 7.5, 15, and 30 mg/kg-day for male rats and 0, 6.3, 12.5, 25, 50, and 100 mg/kg-day for female rats. For each PFAS, three batches of dosing solution were prepared. The time between the batch preparation of the dosing solutions ranged between 29 and 39 days. Blood samples were collected from all the rats at termination for serum chemistry, hematology, coagulation, and the analysis of the parent PFAS chemical in the plasma. In vivo data collection and further detail on the endpoints examined postmortem are described below.
The rats were observed twice daily for morbidity and mortality throughout the study period. At least once prior to randomization to test groups and weekly thereafter, the rats were physically examined, and bodyweights were obtained. Feed consumption was quantified weekly starting on SD 1.
Neurotoxicity was evaluated using the functional observational battery (FOB) and measuring locomotor activity (LMA) 2–4 h post dosing on SDs 78–80 and 80–84, respectively. For both the 14- and 90-day studies, an ophthalmologic examination was conducted prior to randomization and near the end of the study, using indirect ophthalmoscopy and slit–lamp biomicroscopy (as needed) after the administration of a mydriatic solution.
Hematology, biochemistry, and coagulation endpoints were measured at the termination of the study. A Siemens Advia 2120i hematology analyzer (Siemens Healthineers, Erlangen, Germany) was used to measure (or calculate) the parameters related to the complete blood count, leukocyte differential count, and reticulocyte count. The hematology parameters are listed and described in Table 2. The prothrombin time […] and activated partial thromboplastin time (APTT) were measured using an Instrumentation Laboratory (Bedford, MA, USA) ACL Elite Pro coagulation analyzer (laser–nephelometric centrifugal method).
At necropsy, the rats were visually examined for external abnormalities and organ weights (absolute and relative to the BW and brain weight), which were recorded (paired organs weighed together). The tissues were preserved in 10% neutral buffered formalin (NBF), except for the ocular tissues, testes, and epididymides, which were preserved in modified Davidson’s fixative and later transferred to 10% NBF. Bone marrow smears were prepared from the femurs, and the slides were air-dried, fixed in methanol, stained, and stored at room temperature for possible future evaluation. The preserved tissues were embedded in paraffin, sectioned, stained with hematoxylin and eosin, and examined by a board-certified veterinary pathologist.
Statistical analysis was performed using Provantis™ Version 10 or greater (Instem LSS, Limited; Stone, Staffordshire, UK). Differences among the treatment groups compared to the control were evaluated using one-way analysis of variance (ANOVA) if the underlying assumptions of a normal distribution (Shapiro–Wilk test) and the homogeneity of the variance (Levene’s test) were satisfied. […]

Compound: O=C(O)C(F)(Cl)C(F)(F)F (centres unmarked) [CTFPA, 2-Chloro-2,3,3,3-tetrafluoropropanoic acid]
- Liver Weight (female, 100 mg/kg-day): 11.31 g
- Liver/Body Weight (female, 100 mg/kg-day): 3.57%
- Liver/Brain Weight (female, 100 mg/kg-day): 575%
- MPV (female, 100 mg/kg-day): 8.01 ± 0.50 fL
- PT (female, 100 mg/kg-day): 14.22 s
- Total BW change (female, 100 mg/kg-day): 107.34 g
- Total Food Consumed (female, 100 mg/kg-day): 1615 g
- BMDL, absolute liver weight increase (male): 11.6 mg/kg-day
- LOEL, absolute kidney weight increase (male): NR
- LOEL, absolute liver weight increase (male): 7.5 mg/kg-day
- LOEL, relative kidney weight increase (male): NR
- LOEL, relative liver weight increase (male): 3.8 mg/kg-day
- NOEL, absolute kidney weight increase (male): NR
- NOEL, absolute liver weight increase (male): 3.8 mg/kg-day
- NOEL, relative kidney weight increase (male): NR
- NOEL, relative liver weight increase (male): 1.9 mg/kg-day
- % BW Gain (male, 1.9 mg/kg-day): 125.06%
- % Diff, % BW Gain (male, 1.9 mg/kg-day): -0.26%
- % Diff, Total BW change (male, 1.9 mg/kg-day): -0.03%
- % Diff, Total Food Consumed (male, 1.9 mg/kg-day): 0.81%
- A/G (male, 1.9 mg/kg-day): 0.95±0.07 ratio
- ALB (male, 1.9 mg/kg-day): 3.35 ± 0.17 g/dL
- ALPi (male, 1.9 mg/kg-day): 139.8±40.4 U/L
- APTT (male, 1.9 mg/kg-day): 18.83 s
- BUN (male, 1.9 mg/kg-day): 14.8 ± 1.8 mg/dL
- CHOL (male, 1.9 mg/kg-day): 84.4 ± 9.8 mg/dL
- GLOB (male, 1.9 mg/kg-day): 3.52 ± 0.20 g/dL
- GLUC (male, 1.9 mg/kg-day): 170.1 ± 32.6 mg/dL
- HCT (male, 1.9 mg/kg-day): 50.28±1.93%
- HGB (male, 1.9 mg/kg-day): 15.58 ± 0.65 g/dL
- Kidney Weight (male, 1.9 mg/kg-day): 3.12 g
- Kidney/Body Weight (male, 1.9 mg/kg-day): 0.56%
- Kidney/Brain Weight (male, 1.9 mg/kg-day): 150%
- Liver Weight (male, 1.9 mg/kg-day): 14.47 g
- Liver/Body Weight (male, 1.9 mg/kg-day): 2.58%
- Liver/Brain Weight (male, 1.9 mg/kg-day): 697%
- MPV (male, 1.9 mg/kg-day): 7.50 ± 0.37 fL
- PT (male, 1.9 mg/kg-day): 15.55 s
- Total BW change (male, 1.9 mg/kg-day): 316.63 g
- Total Food Consumed (male, 1.9 mg/kg-day): 2084 g
- % BW Gain (male, 3.8 mg/kg-day): 137.76%
- % Diff, % BW Gain (male, 3.8 mg/kg-day): 9.87%
- % Diff, Total BW change (male, 3.8 mg/kg-day): 11.95%
- % Diff, Total Food Consumed (male, 3.8 mg/kg-day): 9.08%
- A/G (male, 3.8 mg/kg-day): 0.93±0.20 ratio
- ALB (male, 3.8 mg/kg-day): 3.29 ± 0.48 g/dL
- ALPi (male, 3.8 mg/kg-day): 131.8±40.1 U/L
- APTT (male, 3.8 mg/kg-day): 16.21 s
- BUN (male, 3.8 mg/kg-day): 15.6 ± 2.5 mg/dL
- CHOL (male, 3.8 mg/kg-day): 79.3 ± 17.3 mg/dL
- GLOB (male, 3.8 mg/kg-day): 3.65 ± 0.66 g/dL
- GLUC (male, 3.8 mg/kg-day): 173.7 ± 32.5 mg/dL
- HCT (male, 3.8 mg/kg-day): 49.12±2.10%
- HGB (male, 3.8 mg/kg-day): 15.20 ± 0.71 g/dL
- Kidney Weight (male, 3.8 mg/kg-day): 3.35 g
- Kidney/Body Weight (male, 3.8 mg/kg-day): 0.56%
- Kidney/Brain Weight (male, 3.8 mg/kg-day): 152%
- Liver Weight (male, 3.8 mg/kg-day): 17.18 g
- Liver/Body Weight (male, 3.8 mg/kg-day): 2.85%
- Liver/Brain Weight (male, 3.8 mg/kg-day): 780%
- MPV (male, 3.8 mg/kg-day): 7.79 ± 0.46 fL
- PT (male, 3.8 mg/kg-day): 15.25 s
- Total BW change (male, 3.8 mg/kg-day): 354.57 g
- Total Food Consumed (male, 3.8 mg/kg-day): 2255 g
- % BW Gain (male, 7.5 mg/kg-day): 145.16%
- % Diff, % BW Gain (male, 7.5 mg/kg-day): 15.76%
- % Diff, Total BW change (male, 7.5 mg/kg-day): 18.72%
- % Diff, Total Food Consumed (male, 7.5 mg/kg-day): 13.5%
- A/G (male, 7.5 mg/kg-day): 1.05±0.14 ratio
- ALB (male, 7.5 mg/kg-day): 3.39 ± 0.32 g/dL
- ALPi (male, 7.5 mg/kg-day): 159.9±63.1 U/L
- APTT (male, 7.5 mg/kg-day): 14.52 s
- BUN (male, 7.5 mg/kg-day): 15.5 ± 2.2 mg/dL
- CHOL (male, 7.5 mg/kg-day): 74.2 ± 8.5 mg/dL
- GLOB (male, 7.5 mg/kg-day): 3.24 ± 0.19 g/dL
- GLUC (male, 7.5 mg/kg-day): 165.6 ± 25.1 mg/dL
- HCT (male, 7.5 mg/kg-day): 47.49±2.30%
- HGB (male, 7.5 mg/kg-day): 14.52 ± 0.72 g/dL
- Kidney Weight (male, 7.5 mg/kg-day): 3.47 g
- Kidney/Body Weight (male, 7.5 mg/kg-day): 0.56%
- Kidney/Brain Weight (male, 7.5 mg/kg-day): 159%
- Liver Weight (male, 7.5 mg/kg-day): 20.01 g
- Liver/Body Weight (male, 7.5 mg/kg-day): 3.24%
- Liver/Brain Weight (male, 7.5 mg/kg-day): 912%
- MPV (male, 7.5 mg/kg-day): 7.61 ± 0.38 fL
- PT (male, 7.5 mg/kg-day): 15.14 s
- Total BW change (male, 7.5 mg/kg-day): 376.00 g
- Total Food Consumed (male, 7.5 mg/kg-day): 2345 g
- % BW Gain (male, 15 mg/kg-day): 135.14%
- % Diff, % BW Gain (male, 15 mg/kg-day): 7.78%
- % Diff, Total BW change (male, 15 mg/kg-day): 8.09%
- % Diff, Total Food Consumed (male, 15 mg/kg-day): 14.6%
- A/G (male, 15 mg/kg-day): 1.16±0.11 ratio
- ALB (male, 15 mg/kg-day): 3.56 ± 0.21 g/dL
- ALPi (male, 15 mg/kg-day): 237.6±66.2 U/L
- APTT (male, 15 mg/kg-day): 12.89 s
- BUN (male, 15 mg/kg-day): 15.8 ± 2.4 mg/dL
- CHOL (male, 15 mg/kg-day): 63.6 ± 10.8 mg/dL
- GLOB (male, 15 mg/kg-day): 3.07 ± 0.19 g/dL
- GLUC (male, 15 mg/kg-day): 175.2 ± 15.8 mg/dL
- HCT (male, 15 mg/kg-day): 47.72±2.58%
- HGB (male, 15 mg/kg-day): 14.62 ± 0.84 g/dL
- Kidney Weight (male, 15 mg/kg-day): 3.40 g
- Kidney/Body Weight (male, 15 mg/kg-day): 0.58%
- Kidney/Brain Weight (male, 15 mg/kg-day): 147%
- Liver Weight (male, 15 mg/kg-day): 20.28 g
- Liver/Body Weight (male, 15 mg/kg-day): 3.47%
- Liver/Brain Weight (male, 15 mg/kg-day): 873%
- MPV (male, 15 mg/kg-day): 7.56 ± 0.43 fL
- PT (male, 15 mg/kg-day): 15.24 s
- Total BW change (male, 15 mg/kg-day): 342.33 g
- Total Food Consumed (male, 15 mg/kg-day): 2368 g
- % BW Gain (male, 30 mg/kg-day): 121.40%
- % Diff, % BW Gain (male, 30 mg/kg-day): -3.18%
- % Diff, Total BW change (male, 30 mg/kg-day): -0.72%
- % Diff, Total Food Consumed (male, 30 mg/kg-day): 10.33%
- A/G (male, 30 mg/kg-day): 1.19±0.12 ratio
- ALB (male, 30 mg/kg-day): 3.72 ± 0.22 g/dL
- ALPi (male, 30 mg/kg-day): 282.9±80.3 U/L
- APTT (male, 30 mg/kg-day): 12.13 s
- Absolute and relative thymus weights (male, 30 mg/kg-day): significantly increased
- BUN (male, 30 mg/kg-day): 18.7 ± 2.7 mg/dL
- CHOL (male, 30 mg/kg-day): 68.5 ± 10.0 mg/dL
- GLOB (male, 30 mg/kg-day): 3.14 ± 0.22 g/dL
- GLUC (male, 30 mg/kg-day): 175.3 ± 23.2 mg/dL
- HCT (male, 30 mg/kg-day): 47.32±2.15%
- HGB (male, 30 mg/kg-day): 14.44 ± 0.69 g/dL
- Kidney Weight (male, 30 mg/kg-day): 3.35 g
- Kidney/Body Weight (male, 30 mg/kg-day): 0.60%
- Kidney/Brain Weight (male, 30 mg/kg-day): 148%
- Liver Weight (male, 30 mg/kg-day): 21.52 g
- Liver/Body Weight (male, 30 mg/kg-day): 3.82%
- Liver/Brain Weight (male, 30 mg/kg-day): 954%
- MPV (male, 30 mg/kg-day): 7.54 ± 0.47 fL
- PT (male, 30 mg/kg-day): 15.74 s
- Total BW change (male, 30 mg/kg-day): 314.42 g
- Total Food Consumed (male, 30 mg/kg-day): 2281 g
